In patent US8592394B2, “Synthetic derivatives beta glycolipids and compositions thereof for the treatment of pathologic disorders” (Enzo Therapeutics, Inc., priority 2003, dated 2013):

How the values were obtained:
IL-6 = experiment: Serum IL-6 by ELISA in ConA induced hepatitis; assay type: in vivo, mice; conditions: intraperitoneal
Description: Serum levels of IFN-γ, TGF-β, TNF-α IL-2, IL-4, IL-6, IL-10 and IL-12 were determined by “sandwich” ELISA, using commercial kits (Quantikine, R&D Systems, Minneapolis, Minn., USA). Serum insulin was also determined by “sandwich” ELISA too, using the commercial kit of Mercodia AB (Uppsala, Sweden) according to the manufacturer's instructions.

[1] = system: intrahepatic and intrasplenic lymphocytes; experiment: FACS analysis of intrahepatic and intrasplenic lymphocytes (NKT, CD4, CD8); assay type: in vivo, mice
Description: (§1) Splenocytes and intrahepatic lymphocytes were isolated as follows: livers and spleens were kept in RPMI-1640+FCS. Then spleens were crushed through a 70 μm nylon cell strainer (Falcon) and centrifuged (1250 rpm for 7 min) for the removal of cell debris. Red blood cells were lysed with 1 ml of cold 155 mM ammonium chloride lysis buffer and centrifuged (1250 rpm for 3 min). Splenocytes were resuspended with 1 ml RPMI+FCS. Cell viability by trypan blue staining was above 90%. For intrahepatic lymphocytes, livers were crushed through a stainless mesh (size 60, Sigma) and the cell suspension was placed in a 50-ml tube for 5 min. Lymphoprep (10 ml, Ficoll, Axis-Shield PoC AS, Oslo, Norway) was placed under similar volume of cell suspension in 50-ml tubes. Tubes were centrifuged at 1800 rpm for 18 min. Cells in the interface were collected and centrifuged at 1800 rpm for 10 min, to obtain a pellet of cells depleted of hepatocytes to a final volume of 250 μl. Approximately 1×10^6 cells/mouse liver, were recovered.
For ConA induced hepatitis experiments, flow cytometry was performed immediately following splenocyte and hepatic lymphocyte isolation using 1×10^6 lymphocytes in 100 μl PBS with 0.1% BSA. To determine the percentage of NKT lymphocytes, FITC anti-mouse CD3 and PE anti-mouse NK1.1 antibodies were used (eBioscience, USA). CD4 and CD8 subsets were detected using FITC anti-mouse CD3 and PE-anti-mouse CD4 or CD8 antibodies. Cells were incubated for 30 min at 4° C. in the dark, washed, and resuspended in 200 μl of PBS with 0.1% BSA. Analytical cell sorting was performed for 1×10^6 cells from each group using a fluorescence-activated cell sorter (FACSTAR plus, Becton Dickinson). Only live cells were counted, and unstained cells served as controls for background fluorescence. Gates were set on the forward and side scatter to exclude dead cells and red blood cells. Data were analyzed using either the Consort 30 two-color contour plot program (Becton Dickinson, Oxnard, Calif.) or the CELLQuest 25 program.
Assessment of the effect of any of the synthetic analogs on the immune response was next determined by analysis of the cytokine serum level of IFNγ in each animal using a commercial “sandwich” ELISA kit, and by FACS analysis of intrahepatic and intrasplenic (peripheral) lymphocytes levels.

fat-associated T cells = experiment: Flow cytometry of T cell subsets in adipose tissue, stromal vascular cells and spleen of ob/ob mice; assay type: in vivo; conditions: 45 μg per os daily 4 weeks, vs vehicle
Description: as §1
Adipose tissue (visceral fat pads) was minced and incubated in Krebs-Ringer bicarbonate buffer (3 mL/g adipose tissue) containing 10mM glucose and 2.5% bovine serum albumin, incubated with 840 U/g collagenase type I (Sigma, Rehovot, Israel)) at 37° C. for 1 hour. Cells were filtered twice through chiffon mesh (100 μm) and centrifuged 50 g for 5 min. Floating adipocytes were separated from pelleted S/V fraction. The infranatant fraction was removed and centrifuged at 200 g for five minutes to pellet the S/V cells.
For metabolic syndrome experiments, the following antibodies were used for flow cytometry: anti-CD4-Pacific Blue, anti-CD8-FITC, anti-IL-17-PE, anti CD25-PercP-Cy5.5 and anti FOX3p PE-Cy725 (all from eBioscience, San Diego, Calif.). Surface staining was performed by incubating cells with antibodies and anti-CD16/32 (blocks Fc, eBioscience) at 4° C. in FACS buffer containing PBS and 0.5% BSA, for 30 min. Cells were washed twice with FACS buffer, resuspended in FACS buffer, and analyzed by flow cytometry. Appropriate isotype controls were used in all experiments. Intracellular staining was performed using Foxp3 staining buffer kit (eBioscience, San Diego, Calif.). Cells were incubated with 1 ml Fixation/Permeabilization solution for 50 min, washed twice with Permeabilization buffer and incubated with anti-Foxp3 Ab for 50 min. Cells were then washed twice with Permeabilization buffer and resuspended with FACS buffer. Analysis was performed using a FACSCalibur instrument (Becton Dickinson, San Jose, Calif.) with FCS express V.3 software (DeNovo software, Los Angeles, Calif.).
(§2) Therefore, five groups of male C57BL/6 Ob/Ob mice were studied. Mice (6 per group) were fed (per os) daily for 4 weeks with 15 or 45 μg of GC (groups B and C, respectively) and 15 or 45 μg of ALIB-97 (groups D and E, respectively). Control mice (Group A) were administered vehicle only.

ob/ob mice = experiment: Serum ALT and AST (hepatic injury) in ob/ob mice; assay type: in vivo; conditions: for serum AST: vehicle group A 710
Description: The effect of β-glycolipids on liver injury was evaluated by serum aspartyl transaminase (AST) and alanine aminotransferase (ALT) activities, which were determined by a clinical chemistry analyzer, Reflovet Plus (Roche Diagnostics, GmbH, Mannheim, Germany).
as §2

[2] = B6 mice, intraperitoneal, 8 h, p<0.05
[3] = B6 mice, oral administration, p<0.05
[4] = ConA induced hepatitis, C57Bl/6 mice, intraperitoneal, low dosage 1 μg/mice

CCCCCCCCCCCCCC=CC(O)C(CO[C@@H]1OC(CO)[C@@H](O)C(O)C1O)NC(=S)NC12CC3CC(CC(C3)C1)C2 (stereo in doubt) [ALIB-97, N-adamantyl-N′-glucosylsphingosine thiourea]
serum IL-6 levels (IL-6; B6 mice): reduced | serum IL-6 levels (IL-6; Jα18−/− mice): reduced | splenic CD3/NKT cells ([1]; B6 mice, intraperitoneal, 8 h, p<0.01): significantly reduced | decrease of hepatic CD3/NKT cells [1, 2]: more than 55% | splenic CD3/CD4 cells [1, 2]: significantly reduced | splenic CD3/CD4 cells ([1]; B6 mice, intraperitoneal, 20 h): not affected | increase of hepatic CD3/CD4 cells ([1]; B6 mice, intraperitoneal, 20 h, p=0.01): 33% | hepatic CD3/CD8 lymphocytes ([1]; B6 mice, oral administration): unaffected | decrease in hepatic CD3/NK1.1 lymphocytes ([1]; B6 mice, oral administration, after 8 hours, p<0.05): 73% | increase of splenic CD3/NK1.1 lymphocytes [1, 3]: > 100% | reduction of splenic CD3/CD8 cells [1, 3]: 30% | reduction of splenic CD3/CD4 cells ([1]; B6 mice, oral administration, p=0.07): 23% | decrease in hepatic CD3/CD4 lymphocyte ratio ([1]; B6 mice, oral administration, p=0.08): 20% | intrahepatic NKT cell levels [1, 4]: decrease | intrahepatic/peripheral ratio of NKT cells [1, 4]: decrease | peripheral/intrahepatic ratio of the CD4/CD8 ratio [1, 4]: increase | CD4+CD25+FOXP3+ cells, ADIPOCYTES (fat-associated T cells): ↑↑ (↓/↑ and ↓↓/↑↑-p≦0.05 and p≦0.01 respectively) | CD4+CD25+IL17+ cells, SVC (fat-associated T cells): ↑ (↓/↑ and ↓↓/↑↑-p≦0.05 and p≦0.01 respectively) | CD4+FOXP3+ cells, SPLEEN (fat-associated T cells): ↓ (↓/↑ and ↓↓/↑↑-p≦0.05 and p≦0.01 respectively) | CD4+FOXP3+IL17+ cells, ADIPOCYTES (fat-associated T cells): ↓ (↓/↑ and ↓↓/↑↑-p≦0.05 and p≦0.01 respectively) | CD4+IL17+ cells, ADIPOCYTES (fat-associated T cells): ↓ (↓/↑ and ↓↓/↑↑-p≦0.05 and p≦0.01 respectively) | CD8+CD25+ cells, ADIPOCYTES (fat-associated T cells): ↓ (↓/↑ and ↓↓/↑↑-p≦0.05 and p≦0.01 respectively) | CD8+CD25+FOXP3+ cells, SPLEEN (fat-associated T cells): ↑↑ (↓/↑ and ↓↓/↑↑-p≦0.05 and p≦0.01 respectively) | CD8+CD25+FOXP3+ cells, SVC (fat-associated T cells): ↓ (↓/↑ and ↓↓/↑↑-p≦0.05 and p≦0.01 respectively) | CD8+CD25+FOXP3+IL17+ cells, ADIPOCYTES (fat-associated T cells): ↓ (↓/↑ and ↓↓/↑↑-p≦0.05 and p≦0.01 respectively) | CD8+CD25+FOXP3+IL17+ cells, SPLEEN (fat-associated T cells): ↑ (↓/↑ and ↓↓/↑↑-p≦0.05 and p≦0.01 respectively) | CD8+CD25+IL17+ cells, ADIPOCYTES (fat-associated T cells): ↑ (↓/↑ and ↓↓/↑↑-p≦0.05 and p≦0.01 respectively) | CD8+CD25+IL17+ cells, SVC (fat-associated T cells): ↑ (↓/↑ and ↓↓/↑↑-p≦0.05 and p≦0.01 respectively) | CD8+FOXP3+ cells, SPLEEN (fat-associated T cells): ↑↑ (↓/↑ and ↓↓/↑↑-p≦0.05 and p≦0.01 respectively) | CD8+FOXP3+IL17 cells, ADIPOCYTES (fat-associated T cells): ↓↓ (↓/↑ and ↓↓/↑↑-p≦0.05 and p≦0.01 respectively) | CD8+IL17+ cells, ADIPOCYTES (fat-associated T cells): ↓ (↓/↑ and ↓↓/↑↑-p≦0.05 and p≦0.01 respectively) | CD25+FOXP3+ cells, SPLEEN (fat-associated T cells): ↓ (↓/↑ and ↓↓/↑↑-p≦0.05 and p≦0.01 respectively) | serum AST (ob/ob mice; day 30, 15 μg per os daily): 289 u/L | serum ALT (ob/ob mice; day 30, 45 μg per os daily, vehicle group A 370, p<0.05): 165 u/L | serum AST (ob/ob mice; day 30, 45 μg per os daily): 124 u/L
